Assay results reported in patent publication US11730714B2, “Compounds for the treatment of neuromuscular disorders” (NMD PHARMA A/S, priority 2017, dated 2023).

Columns and labels:
[1] = system: isolated rat soleus muscles; assay: Recovery of nerve-stimulated force in isolated rat soleus muscles exposed to sub-maximal tubocurarine; format: cell-based; conditions: change in AUC vs AUC after 40 min in tubocurarine before addition
Protocol: Experiments were performed using rat soleus muscles from either young (4-wk-old) or adult Wistar rats (12-14-week-old). Animal handling, killing and isolation of muscle is described elsewhere All experiments were performed using normal Krebs-Ringer bicarbonate solution (NKR). In solutions with elevated Mg^2+, MgCl2 was added to NKR-solution causing minor increases in osmolarity and ionic strength. In solutions with elevated K^+, 4 mM NaCl was replaced by 4 mM KCl in the NKR.
In all contraction experiments, isometric force production was determined and force produced during contractions was quantified by measuring the integral of the force response (AUC). Stimulation and force recordings have been described elsewhere. […] In these latter experiments, extracellular recordings of action potentials (M-waves) could be measured without temporal overlap with stimulation artefacts.
The aim was to find compounds that by inhibition of CIC-1 channels can recover nerve-stimulated force under conditions of fatigue including conditions where fatigue is caused by compromised neuromuscular transmission. Neuromuscular transmission dysfunction can develop because of both pre- and/or post-synaptic complications in connection with a disorder or as part of neuromuscular blockade during/after surgery. In the initial series of drug testing, experiments were performed with isolated muscles in the presence of sub-maximal ACh receptor antagonist tubocurarine. Since the inclusion of tubocurarine caused a partial loss of neuromuscular transmission this experiment mimics the conditions in myasthenia gravis and neuromuscular blockade. To mimic conditions with pre-synaptic complication (Lambert Eaton syndrome, motor neuron disorder, polyneuropathy) the intact nerve-muscle preparations were incubated at elevated extracellular Mg^2+, which is known to suppress release of ACh from nerve terminals of motor neurons.
The experiments also illustrate that field stimulation of the entire nerve-muscle preparation selectively activates the motor nerve when short-duration pulses (0.02 vs 0.2 ms) were used. In FIG. 1A the preparation was stimulated either via field stimulation or via nerve-stimulation using a suction electrode. With the suction electrode only the nerve could be stimulated. When exposed to a submaximal concentration of the ACh receptor antagonist tubocurarine (0.2 μM) a clear drop in peak force and a further decline (or fade) in force during the stimulation developed. This drop in force clearly reflected compromised neuromuscular transmission, as the decline in peak force and fading were not seen with direct stimulation of the muscle. […] Thus, loss of M-wave and force with tubocurarine reflected partial blockade of neuromuscular function. Such fading of force and M-waves during stimulation represent clinical hallmarks of both myasthenia gravis and neuromuscular blockade in connection with surgery. In FIG. 1B, observations with normal (0.2 ms) and short-duration (0.02 ms) pulses have been compared. It can be seen that only with short-duration pulses did tubocurarine cause a decline in peak force and fading (FIG. 1B). This confirms that short-duration pulses in field stimulation could be used as specific nerve-stimulation. […] Elevated extracellular Mg^2+ could thus be used to partially block neuromuscular transmission and thus be used as a model of conditions with compromised pre-synaptic function (Lambert Eaton syndrome, amyotrophic lateral sclerosis, spinal muscular atrophy). […]

[2] = system: rat soleus muscles; format: cell-based; conditions: 10 and 25 μM C8; 1 μM μ-conotoxin GiiiB; vs control conditions
[3] = system: isolated human muscles; format: cell-based; conditions: 150 μM C8; elevated extracellular K+ and low dose TTX
[4] = Pharmacokinetic analysis of C8 in rats, single I.P. dose; format: in vivo, rat; conditions: one-bolus I.P. injection
Protocol: This part of the study was performed by Pipeline Biotech A/S (Spørring, Denmark). […] Plasma concentrations (free and bound) were determined by OnTarget Chemistry (Uppsala, Sweden, Project No.: PB243-001).
Before conducting in vivo experiments with animal models of myasthenia gravis, some pharmacokinetic details were obtained for C8 in response to one-bolus I.P. injection.

[5] = target: T1, human CIC-1 channels (Homo sapiens, UniProt P35523); assay: Automated patch-clamp on human CIC-1 expressed in CHO cells (shift in half activation voltage V1/2); format: cell-based; conditions: compound in intracellular solution vs vehicle control patches; CHO cells expressing human ClC-1
T1 construct: host or cells: CHO (Chinese hamster ovary) cells, cryopreserved, used directly after thawing
T1 sequence (P35523 whole entry): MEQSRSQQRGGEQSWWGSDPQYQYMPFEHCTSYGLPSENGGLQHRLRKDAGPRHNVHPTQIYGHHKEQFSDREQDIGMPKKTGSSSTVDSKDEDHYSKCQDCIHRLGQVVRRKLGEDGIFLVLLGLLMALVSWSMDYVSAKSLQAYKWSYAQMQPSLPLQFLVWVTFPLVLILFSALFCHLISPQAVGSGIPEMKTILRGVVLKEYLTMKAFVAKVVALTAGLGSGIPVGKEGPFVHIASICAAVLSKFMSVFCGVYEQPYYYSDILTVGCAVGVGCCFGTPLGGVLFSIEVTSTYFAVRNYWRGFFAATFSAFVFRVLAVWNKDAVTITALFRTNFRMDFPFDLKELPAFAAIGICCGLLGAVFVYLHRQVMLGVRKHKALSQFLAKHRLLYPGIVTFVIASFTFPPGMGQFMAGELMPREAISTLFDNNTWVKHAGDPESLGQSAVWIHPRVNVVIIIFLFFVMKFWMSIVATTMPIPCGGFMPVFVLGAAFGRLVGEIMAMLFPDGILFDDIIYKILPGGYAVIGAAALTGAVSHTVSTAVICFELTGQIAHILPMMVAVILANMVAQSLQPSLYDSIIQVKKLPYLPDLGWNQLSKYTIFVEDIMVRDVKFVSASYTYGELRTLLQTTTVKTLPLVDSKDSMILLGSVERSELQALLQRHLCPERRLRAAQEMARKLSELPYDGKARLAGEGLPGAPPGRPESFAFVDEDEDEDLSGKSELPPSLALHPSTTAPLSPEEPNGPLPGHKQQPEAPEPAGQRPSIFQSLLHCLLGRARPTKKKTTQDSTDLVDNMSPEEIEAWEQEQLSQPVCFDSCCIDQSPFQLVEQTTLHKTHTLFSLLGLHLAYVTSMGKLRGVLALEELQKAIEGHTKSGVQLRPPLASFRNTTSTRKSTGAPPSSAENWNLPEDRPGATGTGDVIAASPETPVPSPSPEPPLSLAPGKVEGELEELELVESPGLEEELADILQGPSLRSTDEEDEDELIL
Protocol: FIG. 13A-13B: FIG. 13A illustrates the voltage protocol used to evoke currents in whole cell patches of CHO cells expressing human CIC-1 channels.
The investigatory goal of these experiments was to evaluate how compounds affect the open probability and current amplitude of human CIC-1 channels expressed in CHO cells. Experiments were performed using an automated patch clamp system that allowed high throughput testing of whole cell patches together with both intracellular and extracellular addition of compound.
Automated whole cell patch clamp experiments were performed with the Qpatch 16 system (Sophion Bioscience, Ballerup, Denmark) at room temperature. Data acquisition and analysis were performed in the Qassay software (ver. 5.6, Odense).
To obtain tail currents, the membrane potential was stepped to −100 mV after each test voltage for 300 ms and then relaxed to −30 mV for 2 sec between sweeps (FIG. 3). I/V relationships for whole cell instant and steady state current amplitudes were obtained by plotting average current densities at the beginning and at the end of the 300 ms step against the membrane potential (FIG. 4).
In order to determine the relative overall open probability (Po), the instantaneous tail currents were normalized to the maximal tail current obtained following the most positive voltage step and plotted against the test voltage. Plots of normalized tail currents from each whole cell patch were then fitted to a Boltzmann function allowing determination of half activation voltages (V1/2, FIG. 5).
Osmolality adjusted to […] using sucrose.
Intracellular solutions contained: 80 mM […], 60 mM CsCl, 5/1 mM KOH/EGTA, 10 mM HEPES, 10 mM NaCl, pH adjusted to 7.2 with NaOH (2 M). Osmolality adjusted to ˜320 mOsm using sucrose.
Cells used in patch clamp experiments were Chinese hamster ovary cells (CHO) constitutively expressing human CIC-1 channels. The amino acid sequence encoded by the cDNA used to create this cell line was identical to the translated sequence for GenBank accession number NM_000083.2. Cells were produced by Charles River (Catalogue CT6175, Cleveland Ohio, USA) in a cryopreserved format. Experiments were performed on the cells directly after thawing (3×10^6 cells used in each experiment).
To evaluate the compound effect on CIC-1, when applied directly to the intracellular side of the cell membrane, the half activation voltage, V1/2, was determined from whole cell patches with compound added to the intracellular solution and then compared to V1/2 determined from control cell patches with only vehicle added to the intracellular solution. Additionally, the effect of extracellular added compound was evaluated by determine V1/2 and steady state current amplitudes before and after exchanging the extracellular solution to contain compound.
The difference in half activation voltage of CIC-1 channels, […]V1/2, was determined as the difference between the cell patches treated intracellularly with compound and control cells patches and is reported in Table 4 below. A positive shift in […]V1/2 is reflecting CIC-1 channel inhibition by the tested compound. P-values of <0.05 is considered significant.

In the case of C[C@H](Oc1ccc(Br)cc1)C(=O)O [Compound C8, (2S)-2-(4-bromophenoxy)propanoic acid], the “50 μM % change after addition (AUC of nerve-stimulated force)” value ([1]; 50 μM compound, AUC related to force prior to tubocurarine) is reported as 16%, the “150 μM % change after addition (AUC of nerve-stimulated force)” value ([1]; 150 μM compound) is reported as 23% and the EPP amplitude [2] is reported as “significantly larger EPPs”. The contractile force [3] was “markedly recovery”, the Cl_obs [4] was 48.69 mL/h and the VD_obs [4] was 259.62 mL.
For “(2S)-2-(4-bromophenoxy)(2-^2H)butanoic acid [Compound A-60]”, the “ΔV½ (difference in half activation voltage of ClC-1)” value [5] was 20.0 mV.
